Results reported in patent publication US20240174625A1, “COMPOSITIONS AND METHODS FOR TREATING TAUOPATHIES” (The Regents of the University of California, priority 2021, published 2024).
“Also recorded” adds a separate entry of the source.

Columns and labels:
HEK293T cells = assay: Cell viability assay (CellTiter Glo); format: cell-based, human; settings: for IC50: Homo sapiens, HEK-293T, log10 transformed, IC50 = concentration that suppresses 50% cell viability, HEK293T cells; for Therapeutic index: ratio of IC50 (cell viability) over EC50 (NPEPPS activity)
How it was run: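 HEK293T cells seeded at 16,500 per well on poly-L-ornithine in minimal medium with amino acids, vitamins and AlbuMax in HBS, with compound added as a 20-step 2-fold dilution. CellTiter Glo luminescence was read after 24 h. Viability is the signal normalized to DMSO control.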

phosphorylated tau = assay: Tau histopathology in hTau^P301S mouse model of tauopathy; format: in vivo; settings: hTau^P301S homozygous mice; 20 mg/kg/day s.c. for 28 days; compared to vehicle
Source text: (§1) Adult hTau^P301S homozygous mice (Tg2541Godt mice, a transgenic mouse model of tauopathy carrying a human Tau^P301S mutation^19 and wild-type (WT) littermates on a C57BL/6J background of both genders were used in the in vivo efficacy on Tau histopathology experiments. hTauP301S homozygous mice were obtained as gifts from Dr. Michel Goedert at MRC Laboratory of Molecular Biology, Cambridge, UK and Dr. Stanley Prusiner at UCSF, USA, and were re-derived onto a pure C57BL/6J genetic background by Dr. Prusiner's lab. Mice were periodically outcrossed with WT C57BL/6J mice (Strain #000664) from Jackson Laboratory (Bar Harbor, ME) to maintain genetic diversity. Animals were group-housed in a temperature-controlled facility (73±2° F., 45% humidity, regular 12-hour light/dark cycle, lights on at 7 AM), with food and water ad libitum. All experimental procedures were approved by the ARC administrative office at the University of California Los Angeles (UCLA) and the UCLA institutional animal care and use committee (IACUC) and followed the USDA Animal Welfare Act Regulations, the Public Health Service (PHS) Policy on Humane Care and Use of Laboratory Animals, and the Guide for the Care and Use of Laboratory Animals. Adult male WT mice on a C57BL/6J background (Strain #000664), purchased from Jackson Laboratory (Bar Harbor, ME), were used in the in vivo pharmacokinetics and blood-brain barrier penetration studies. Animals were randomly assigned to experimental groups and tested by experimenters blinded to experimental conditions.
Osmotic minipump (model #2004) were purchased from Alzet (Cupertino, CA, USA) and implanted into mice subcutaneously (s.c.) following the manufacturer's instruction, as previously described^20. Briefly, animals are placed on a thermoregulation device and anesthetized using isoflurane [4-5% (induction), 1.5-2.5% (maintenance)]. A sterile drape is used to create a sterile field for surgery after animal preparation. […] Animals are monitored observed continuously during the immediate anesthetic-recovery period until the animal is ambulatory. Animals are monitored daily after anesthetic recovery for 7 days. […]
Assessment of tau histopathological in a mouse model of tauopathy Effects of pharmacological manipulations of JMM compounds on tau histopathology were evaluated via osmotic pump chronic infusion at 20 mg/kg/day s.c. over 28 consecutive days in hTau^P301S homozygous mice or WT littermates, starting treatment at the onset of Tau histopathology (i.e., 4.2 months old age). […] Animals are weighted (g) and rectal temperature (° C.) was measured using a thermometer equipped with a mouse rectal probe (Braintree Scientific Inc., Braintree, MA) on treatment day 27. […]

[1] = In vivo plasma pharmacokinetics; set-up: species or system mouse; settings: mice; for half life / plasma PK parameters / Cmax (maximum plasma concentration observed): 20 mg/kg i.p., compared to JMM001
Source text: as §1
In vivo pharmacokinetics and blood-brain barrier penetration studies are conducted at UCSD-DMPK core following their standard of operation protocols. Briefly, freshly prepared JMM compounds (e.g., JMM001, JMM013, JMM015, JMM052, JMM067, and JMM086) formulated in a vehicle (1:1:1:7 DMSO: Cremophor: Ethanol: Saline) were administered to C57BL/6J mice at 20 mg/kg systemically (i.p., i.v., or p.o.) at various time points (0, 0.5, 1, 2, 4, 8, and 24 hrs post-injection) with five mice per group. Plasma samples were collected, and compound plasma levels were measured using LC/MS. […] Brain samples are then processed following and compound concentrations in the brain sample were measured via LC/MS. Compound brain levels are normalized to the mass of brain in a unit of ng/mg.

half life [1] | plasma PK parameters [1] | Cmax (maximum plasma concentration observed) [1] | half life ([1]; 20 mg/kg) | oral bioavailability ([1]; 20 mg/kg i.v. or p.o.) | Compound | IC50 (HEK293T cells) [µM] | Therapeutic index (HEK293T cells) | tau histopathology in the cortex (phosphorylated tau staining) (phosphorylated tau)
improved | improved |  |  |  | c1ccc2c(CNc3nsc4ccccc34)cccc2c1 [JMM013] | 407 | 27.36 | reduced
 | improved | increasing | improved; also recorded: increasing |  | CN(Cc1ccc(C(F)(F)F)cc1)c1nsc2ccccc12 [JMM067] | 126 | 15.54 | 
 | improved | increasing | improved; also recorded: increasing |  | c1ccc2c(c1)-c1ccccc1C2Nc1nsc2ccccc12 [JMM052] | 1230 | 72.24 | does not significantly reduce
 | improved | increasing | improved; also recorded: increasing |  | c1ccc(COc2ccc(CNc3nsc4ccc(OCc5ccccc5)cc34)cc2)cc1 [JMM083] | 1550 | 2189.48 | reduced
 |  |  |  | high | COc1ccc(CNc2nsc3ccccc23)cc1OC [JMM001] | 64.6 | 4.05 | 
